The values that follow come from PMC4766633, “Unique PFK regulatory property from some mosquito vectors of disease, and from Drosophila melanogaster” (Parasites & Vectors, 2016).

Series [1] deals with T1, AaPFK (Aedes aegypti phosphofructokinase) (Aedes aegypti, UniProt A0A903U8I9).
T1 construct: gene 5568472; native enzyme in supernatant of whole-insect homogenate, not purified
T1 sequence (A0A903U8I9 1-790): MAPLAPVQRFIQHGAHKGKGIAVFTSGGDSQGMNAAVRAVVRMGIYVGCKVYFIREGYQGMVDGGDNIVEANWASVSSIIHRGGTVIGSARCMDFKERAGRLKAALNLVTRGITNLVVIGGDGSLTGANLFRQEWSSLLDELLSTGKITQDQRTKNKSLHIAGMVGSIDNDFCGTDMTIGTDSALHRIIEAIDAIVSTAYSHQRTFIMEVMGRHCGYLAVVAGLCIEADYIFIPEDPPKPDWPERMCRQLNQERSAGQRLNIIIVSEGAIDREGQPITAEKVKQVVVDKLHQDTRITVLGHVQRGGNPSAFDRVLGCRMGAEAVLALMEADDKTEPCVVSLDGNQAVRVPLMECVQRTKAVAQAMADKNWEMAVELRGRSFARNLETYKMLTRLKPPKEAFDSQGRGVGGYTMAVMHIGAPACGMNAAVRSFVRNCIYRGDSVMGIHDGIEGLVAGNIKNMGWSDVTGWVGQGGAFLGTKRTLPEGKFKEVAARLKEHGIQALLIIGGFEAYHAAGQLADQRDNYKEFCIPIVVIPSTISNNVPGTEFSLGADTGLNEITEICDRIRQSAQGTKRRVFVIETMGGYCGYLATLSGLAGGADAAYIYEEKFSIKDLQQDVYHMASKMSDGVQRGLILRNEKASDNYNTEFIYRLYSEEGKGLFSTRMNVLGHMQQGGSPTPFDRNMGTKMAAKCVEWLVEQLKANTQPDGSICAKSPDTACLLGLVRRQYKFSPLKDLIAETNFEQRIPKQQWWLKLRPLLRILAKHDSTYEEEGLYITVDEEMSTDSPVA
Put plainly: coupled NADH oxidation assay (aldolase/TPI/alpha-GPDH), […] nm. The class given is biochemical. Particulars: substrate inhibition, allosteric, second site; 1 mM F6P, 5 mM MgCl2, pH 7.4; crude extract; unit not printed (ATP range given in mM).

Substrate in series [2]: Nc1ncnc2c1ncn2[C@@H]1O[C@H](COP(=O)(O)OP(=O)(O)OP(=O)(O)O)[C@@H](O)[C@H]1O
The experiment in a line: cells, lysate or membranes. Particulars: 1 mM F6P, 5 mM MgCl2, pH 7.4 (Fig. 1 legend: pH 8.0); crude extract; Table 1 labels this number Kprime = K0.5^h with h 0.741.

For the molecule `Nc1ncnc2c1ncn2[C@@H]1O[C@H](COP(=O)(O)OP(=O)(O)OP(=O)(O)O)[C@@H](O)[C@H]1O` [ATP], the “ATP / Activity [U (mg protein) ^-1]” value in series [1] was determined as 4.536 ± 0.178.

B1: AaPFK (Aedes aegypti phosphofructokinase) (Aedes aegypti) (protein)
chain: MAPLAPVQRFIQHGAHKGKGIAVFTSGGDSQGMNAAVRAVVRMGIYVGCKVYFIREGYQGMVDGGDNIVEANWASVSSIIHRGGTVIGSARCMDFKERAGRLKAALNLVTRGITNLVVIGGDGSLTGANLFRQEWSSLLDELLSTGKITQDQRTKNKSLHIAGMVGSIDNDFCGTDMTIGTDSALHRIIEAIDAIVSTAYSHQRTFIMEVMGRHCGYLAVVAGLCIEADYIFIPEDPPKPDWPERMCRQLNQERSAGQRLNIIIVSEGAIDREGQPITAEKVKQVVVDKLHQDTRITVLGHVQRGGNPSAFDRVLGCRMGAEAVLALMEADDKTEPCVVSLDGNQAVRVPLMECVQRTKAVAQAMADKNWEMAVELRGRSFARNLETYKMLTRLKPPKEAFDSQGRGVGGYTMAVMHIGAPACGMNAAVRSFVRNCIYRGDSVMGIHDGIEGLVAGNIKNMGWSDVTGWVGQGGAFLGTKRTLPEGKFKEVAARLKEHGIQALLIIGGFEAYHAAGQLADQRDNYKEFCIPIVVIPSTISNNVPGTEFSLGADTGLNEITEICDRIRQSAQGTKRRVFVIETMGGYCGYLATLSGLAGGADAAYIYEEKFSIKDLQQDVYHMASKMSDGVQRGLILRNEKASDNYNTEFIYRLYSEEGKGLFSTRMNVLGHMQQGGSPTPFDRNMGTKMAAKCVEWLVEQLKANTQPDGSICAKSPDTACLLGLVRRQYKFSPLKDLIAETNFEQRIPKQQWWLKLRPLLRILAKHDSTYEEEGLYITVDEEMSTDSPVA
As for B1, in series [2], the K0.5 is recorded as 0.43 ± 0.10 mM.
